According to US20260191999A1, “COMPOUNDS AND THEIR USE” (KING'S COLLEGE LONDON, priority 2022, published 2026):

Columns and labels:
[1] = molecular target: T1, human recombinant ALDH1A1 (Homo sapiens, UniProt P00352); test: ALDH activity colorimetric assay (Biovision), ALDH1A1; format: biochemical; conditions: Table 1, class symbols
T1 construct: purchased bio-techne
T1 sequence (P00352 1-501): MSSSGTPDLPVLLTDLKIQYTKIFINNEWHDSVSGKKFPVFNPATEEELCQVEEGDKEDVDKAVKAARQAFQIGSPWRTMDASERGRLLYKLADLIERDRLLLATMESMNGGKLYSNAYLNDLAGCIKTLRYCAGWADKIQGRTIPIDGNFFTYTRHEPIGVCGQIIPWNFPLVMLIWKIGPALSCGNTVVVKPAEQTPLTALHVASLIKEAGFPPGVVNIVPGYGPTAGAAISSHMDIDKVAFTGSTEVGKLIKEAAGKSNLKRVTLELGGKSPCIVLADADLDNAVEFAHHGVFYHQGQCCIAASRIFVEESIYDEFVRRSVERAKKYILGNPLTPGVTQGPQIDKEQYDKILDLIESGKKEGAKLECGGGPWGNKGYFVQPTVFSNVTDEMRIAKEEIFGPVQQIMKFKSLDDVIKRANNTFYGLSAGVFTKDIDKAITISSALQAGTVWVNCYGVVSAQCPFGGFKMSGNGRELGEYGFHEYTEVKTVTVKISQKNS
Description: ALDH substrate kinetics were measured using an ALDH activity colorimetric assay kit (Biovision) according to the manufacturer's instructions. 1 μg/well human recombinant ALDH1A1 (bio-techne), ALDH2 (abcam), or ALDH3A1 (ATGen Co., Ltd) were used. The assay was initiated by the addition of enzyme after all reagents were pre-warmed to 37° C. Plates were read in kinetic mode on a Multiskan FC plate reader (Thermo Scientific) at 450 nm over 40 min at 37° C.
The in vitro potency of the cold, non-radioactive reference compound compared against two different ALDH isoforms, ALDH1A1 and ALDH2 (using the ALDH activity colorimetric assay Kit (Biovision)).
Other reference compounds (PQM-C) were compared against ALDH1A1 (using the ALDH activity colorimetric assay Kit (Biovision)).

[2] = test system: SKOV3-TRip2 and SKOV3-ip1 cells; test: Cell uptake of radiotracer, drug-resistant vs drug-sensitive SKOV3 cells; format: cell-based, human
Description: (§1) For cell uptake studies SKOV3-ip1 and SKOV3-TRip2, A549-WT, A549-KO-ALDH1A1, HEK293-WT and HEK293-ALDH1A1 cells were plated in 6 well plates 24 h prior to the studies, as described above (Western Blotting). One mL of fresh media containing 0.37 MBq of PQM-H-001 and 6 KBq PQM-H-002 was added to each well for the desired incubation time. At 40 min, plates were placed on ice, washed three times with ice-cold PBS to remove exogenous radioactivity and lysed in RIPA buffer ([…]; Fisher Scientific Ltd).
(§2) For all cell uptake and efflux study decay-corrected radioactivity in lysates was determined on a gamma counter ([…]; Wallac 1282 CompuGamma counter), with the remaining cell lysate centrifuged (21,000×g for 10 min at 4° C.) and the supernatant used to determine protein concentration following radioactive decay using a Pierce BCA assay. To quantify radiotracer uptake in cells, three standard solutions of the radioactivity-containing medium were counted on the gamma counter. Data were expressed as a percentage of total radioactivity administered to cells per mg of protein.
Next, the time-dependent uptake of the of the radiotracers PQM-H-001 ([^18F]PQM-H-001) and PQM-H-002 ([^125I]PQM-H-002) was profiled in drug-resistant SKOV3-Trip2 and drug-sensitive SKOV3-ip1 cell lines (Pereira, R., et al. 2019).

[3] = test system: HEK293-ALDH1A1 and HEK293-WT human embryonic kidney cells; test: Cell uptake of radiotracer, HEK293-ALDH1A1 vs HEK293-WT; format: cell-based; conditions: ALDH1A1 positive vs ALDH1A1 negative cell line
Description: HEK293 stably overexpressing ALDH1A1 were obtained by infecting cells with lentiviral particles containing the nucleotide sequences encoding for human ALDH1A1 (Origene RC200723L^4V LentiORF particles (mGFP-tagged)). Briefly, 1×10^4 HEK-293 cells were seeded into a 24-well plate and maintained for 24 hours at 37° C., 5% CO2. Cells were then infected with the lentiviral particles using a multiplicity of infection (MOI) of 10 in the presence of hexadimethrine bromide (6 μg/mL) (Sigma-Aldrich, St. Louis, MO, USA). The next day, medium was removed and replaced with fresh medium. At 36 h post-infection, medium was replaced with complete culture medium containing puromycin (1 μg/ml) which caused 100% cell death in non-transduced control cells after 5 days. Cells resistant to puromycin were subjected to clonal selection by the limiting dilution method. Overexpression of ALDH1A1 was confirmed by western blots and real-time PCR.
as §1
as §2, with “protein. […]” for “protein.”

[4] = test system: A549-WT and A549-KO-ALDH1A1 human lung cancer cells; test: Cell uptake of radiotracer, A549-WT vs A549-KO-ALDH1A1; format: cell-based; conditions: ALDH1A1 positive vs ALDH1A1 negative cell line
Description: A549-KO-ALDH1A1 cells were obtained using an ALDH1A1 human gene knockout kit (Cat #KN400723) according to manufacturer's instructions (Origene, Rockville, MD, USA). Briefly, 3×10^5 A549 cells were seeded into a 6-well plate and maintained for 24 hours at 37° C., 5% CO2. Lipofectamine 3000 (Cat #L^3000, Invitrogen) was mixed with 1 μg of gRNA vector (pCas-guide) and 1 μg of donor template in Opti-MEM and added to cells for 16 hours. The next day, the transfection medium was removed and replaced with fresh medium. Forty-eight hours post-transfection, medium was replaced with fresh medium containing 0.5 μg/mL of puromycin (Cat #A1113803) which caused 100% cell death in non-transfected control cells after 5 days. Cells resistant to puromycin were subjected to clonal selection by the limiting dilution method. Knockout of protein was confirmed by western blots.
as §1, §2
The following compounds were profiled in A549-WT (positive ALDH1A1) and A549-KO-ALDH1A1 (negative for ALDH1A1) human lung cancer cells as well as HEK293-WT (negative for ALDH1A1) and HEK293-ALDH1A1 (positive for ALDH1A1) human embryonic kidney cells. The fold difference in radiotracer retention for the ALDH1A1 positive cell lines as compared to the ALDH1A1 negative cell lines for each compound is shown in Table 2.

Row | SMILES | IC50 [1] [nM] | other results
1 | CS(=O)(=O)N1CCN(C(=O)c2cnc3c([N+](=O)[O-])cc(F)cc3c2-c2ccc(C3(C#N)CC3)cc2)CC1 [PQM-C-006, 1-(4-(6-Fluoro-3-(4-(methylsulfonyl)piperazine-1-carbonyl)-8-nitroquinolin-4-yl)phenyl)cyclopropane-1-carbonitrile] | 10 to 100 | 
2 | CS(=O)(=O)N1CCN(C(=O)c2cnc3c([N+](=O)[O-])cc(I)cc3c2-c2ccc(C3(C#N)CC3)cc2)CC1 [PQM-C-007, 1-(4-(6-Iodo-3-(4-(methylsulfonyl)piperazine-1-carbonyl)-8-nitroquinolin-4-yl)phenyl)cyclopropane-1-carbonitrile] | 10 to 100 | 
3 | CS(=O)(=O)N1CCN(C(=O)c2cnc3cc(F)ccc3c2-c2ccc(C3(C#N)CC3)cc2)CC1 [PQM-C-011, 1-(4-(7-Fluoro-3-(4-(methylsulfonyl)piperazine-1-carbonyl)quinolin-4-yl)phenyl)cyclopropane-1-carbonitrile] | 10 to 100 | 
4 | CS(=O)(=O)N1CCN(C(=O)c2cnc3cc(I)ccc3c2-c2ccc(C3(C#N)CC3)cc2)CC1 [PQM-C-012, 1-(4-(7-Iodo-3-(4-(methylsulfonyl)piperazine-1-carbonyl)quinolin-4-yl)phenyl)cyclopropane-1-carbonitrile] | 10 to 100 | 
5 | CS(=O)(=O)N1CCN(C(=O)c2cnc3c(F)cccc3c2-c2ccc(C3(C#N)CC3)cc2)CC1 [PQM-C-016, 1-(4-(8-Fluoro-3-(4-(methylsulfonyl)piperazine-1-carbonyl)quinolin-4-yl)phenyl)cyclopropane-1-carbonitrile] | 10 to 100 | 
6 | CS(=O)(=O)N1CCN(C(=O)c2cnc3c(I)cccc3c2-c2ccc(C3(C#N)CC3)cc2)CC1 [PQM-C-017, 1-(4-(8-Iodo-3-(4-(methylsulfonyl)piperazine-1-carbonyl)quinolin-4-yl)phenyl)cyclopropane-1-carbonitrile] | 10 to 100 | 
7 | CS(=O)(=O)N1CCN(C(=O)c2cnc3ccccc3c2-c2ccc(C3(C#N)CC3)c(F)c2)CC1 [PQM-C-021] | ≤ 10 | 
8 | CS(=O)(=O)N1CCN(C(=O)c2cnc3ccccc3c2-c2ccc(C3(C#N)CC3)c(I)c2)CC1 [PQM-C-022, 1-(2-Iodo-4-(3-(4-(methylsulfonyl)piperazine-1-carbonyl)quinolin-4-yl)phenyl)cyclopropane-1-carbonitrile] | 1000 to 10000 | 
9 | CS(=O)(=O)N1CCN(C(=O)c2cnc3ccccc3c2N2CCC(C#N)(c3ccc(F)cc3)CC2)CC1 [PQM-C-026, 4-(4-fluorophenyl)-1-(3-(4-(methylsulfonyl)piperazine-1-carbonyl)quinolin-4-yl)piperidine-4-carbonitrile] | ≤ 10 | 
10 | CS(=O)(=O)N1CCN(C(=O)c2cnc3ccccc3c2N2CCC(C#N)(c3ccc(I)cc3)CC2)CC1 [PQM-C-027, 4-(4-iodophenyl)-1-(3-(4-(methylsulfonyl)piperazine-1-carbonyl)quinolin-4-yl)piperidine-4-carbonitrile] | 100 to 1000 | 
11 | CS(=O)(=O)N1CCN(C(=O)c2cnc3ccc([125I])cc3c2-c2ccc(C3(C#N)CC3)cc2)CC1 [PQM-H-002, 1-(4-(6-(iodo-^125I)-3-(4-(methylsulfonyl)piperazine-1-carbonyl)quinolin-4-yl)phenyl)cyclopropane-1-carbonitrile] |  | Radiotracer retention, drug resistant versus drug-sensitive cells [2]: 200 times higher; fold difference in radiotracer retention, HEK293-ALDH1A1 vs. HEK293-WT [3]: 56 fold; fold difference in radiotracer retention, A549-WT vs A549-KO-ALDH1A1 [4]: 40 fold
12 | CS(=O)(=O)N1CCN(C(=O)c2cnc3c([N+](=O)[O-])cc([125I])cc3c2-c2ccc(C3(C#N)CC3)cc2)CC1 [PQM-H-007, 1-(4-(6-(iodo-^125I)-3-(4-(methylsulfonyl)piperazine-1-carbonyl)-8-nitroquinolin-4-yl)phenyl)cyclopropane-1-carbonitrile] |  | fold difference in radiotracer retention, HEK293-ALDH1A1 vs. HEK293-WT [3]: 2 fold; fold difference in radiotracer retention, A549-WT vs A549-KO-ALDH1A1 [4]: 17 fold
13 | CS(=O)(=O)N1CCN(C(=O)c2cnc3c([125I])cccc3c2-c2ccc(C3(C#N)CC3)cc2)CC1 [PQM-H-017, 1-(4-(8-(fluoro-^125I)-3-(4-(methylsulfonyl)piperazine-1-carbonyl)quinolin-4-yl)phenyl)cyclopropane-1-carbonitrile] |  | fold difference in radiotracer retention, HEK293-ALDH1A1 vs. HEK293-WT [3]: 6 fold; fold difference in radiotracer retention, A549-WT vs A549-KO-ALDH1A1 [4]: 16 fold
14 | CS(=O)(=O)N1CCN(C(=O)c2cnc3ccccc3c2-c2ccc(C3(C#N)CC3)c([125I])c2)CC1 [PQM-H-022, 1-(2-(fluoro-^125I)-4-(3-(4-(methylsulfonyl)piperazine-1-carbonyl)quinolin-4-yl)phenyl)cyclopropane-1-carbonitrile] |  | fold difference in radiotracer retention, A549-WT vs A549-KO-ALDH1A1 [4]: 6 fold
